Values joined by “and” are separate entries in the source; they are usually repeats but may differ in a detail not shown here. Equal entries are not always repeated. Inconclusive results and toxic doses are left out.

Data on four molecules can be found in PubChem BioAssay AID200 (DTP/NCI, 2004).

The test deals with B6C3F1 mice, B16 melanoma ip, median survival T/C. Nature of the test: NCI In Vivo Anticancer Drug Screen. Data for tumor model B16 Melanoma (intraperitoneal) in B6C3F1 mice. The conditions noted are these: endpoint: median survival time, higher = longer survival. The method, boiled down:
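Values are T/C ratios: the measurement in treated animals divided by that in vehicle-treated controls, using survival or tumor size in mice carrying transplantable tumors.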

Take `COC(=O)NC1C(C)OC(OC2C/C=C(/C)C3C=CC4C(OC5CC(OC6CCC(OC7CC(O)C(OC8CCC(O)C(C)O8)C(C)O7)C(C)O6)C(OC(C)=O)C(C)O5)C(C)CC(C)C4C3(C)/C(O)=C3/C(=O)OC4(CC(C=O)=CC(O)C4/C=C\2C)C3=O)CC1(C)[N+](=O)[O-]` (stereo not drawn): the T/C (dose: 1.25 mg/kg/injection, schedule: Q01DX009 (ip), vehicle: water) is 114 % of control; the T/C (dose: 1.69 mg/kg/injection, schedule: Q03HX024 (ip), vehicle: water) is 165 % of control; the T/C (dose: 2.4 mg/kg/injection, schedule: Q01DX005 (ip), vehicle: water) was 124 % of control; the T/C (dose: 2.43 mg/kg/injection, schedule: Q01DX005 (iv), vehicle: water) was 110 % of control; the T/C (dose: 2.5 mg/kg/injection, schedule: Q01DX009 (sc), vehicle: water) was 98 % of control; the T/C (dose: 2.53 mg/kg/injection, schedule: Q03HX024 (ip), vehicle: water) is 186 % of control. In addition, the T/C is 99 % of control (dose: 3.0 mg/kg/injection, schedule: Q01DX005 (iv), vehicle: water); 161 % of control (dose: 3.4 mg/kg/injection, schedule: Q03HX008 (ip), vehicle: water); 160 % of control (dose: 3.6 mg/kg/injection, schedule: Q01DX005 (ip), vehicle: water); 114 % of control (dose: 3.63 mg/kg/injection, schedule: Q01DX005 (iv), vehicle: water); 173 % of control (dose: 3.77 mg/kg/injection, schedule: Q03HX024 (ip), vehicle: water); 105 % of control (dose: 4.5 mg/kg/injection, schedule: Q01DX005 (iv), vehicle: water). Besides, the T/C runs as follows: (dose: 4.5 mg/kg/injection, schedule: Q01DX009 (ip), vehicle: water) 161 % of control; (dose: 5.0 mg/kg/injection, schedule: Q01DX009 (sc), vehicle: water) 97 % of control; (dose: 5.08 mg/kg/injection, schedule: Q03HX008 (ip), vehicle: water) 171 % of control; (dose: 5.3 mg/kg/injection, schedule: Q01DX005 (ip), vehicle: water) 177 % of control; (dose: 5.4 mg/kg/injection, schedule: Q01DX005 (ip), vehicle: water) 165 % of control; (dose: 5.41 mg/kg/injection, schedule: Q01DX005 (iv), vehicle: water) 108 % of control. The T/C is 203 % of control (dose: 5.63 mg/kg/injection, schedule: Q03HX024 (ip), vehicle: water); 101 % of control (dose: 6.0 mg/kg/injection, schedule: Q01DX009 (sc), vehicle: water); 105 % of control (dose: 6.7 mg/kg/injection, schedule: Q01DX005 (iv), vehicle: water); 165 % of control (dose: 6.7 mg/kg/injection, schedule: Q01DX009 (ip), vehicle: water); 98 % of control (dose: 6.74 mg/kg/injection, schedule: Q01DX009 (oral), vehicle: water); 153 % of control and 159 % of control (dose: 8.0 mg/kg/injection, schedule: Q01DX005 (ip), vehicle: water). Also, the T/C (dose: 8.0 mg/kg/injection, schedule: Q01DX005 (iv), vehicle: water) is 108 % of control and 120 % of control; the T/C (dose: 8.08 mg/kg/injection, schedule: Q01DX005 (iv), vehicle: water) was 98 % of control; the T/C (dose: 8.1 mg/kg/injection, schedule: Q01DX005 (ip), vehicle: water) was 175 % of control; the T/C (dose: 9.0 mg/kg/injection, schedule: Q01DX009 (sc), vehicle: water) is 109 % of control; the T/C (dose: 9.1 mg/kg/injection, schedule: Q04DX003 (ip), vehicle: water) was 177 % of control; the T/C (dose: 10.0 mg/kg/injection, schedule: Q01DX005 (iv), vehicle: water) was 103 % of control. Besides, the T/C is 100 % of control (dose: 10.0 mg/kg/injection, schedule: Q01DX009 (sc), vehicle: water); 102 % of control (dose: 10.05 mg/kg/injection, schedule: Q01DX009 (oral), vehicle: water); 171 % of control and 197 % of control (dose: 12.0 mg/kg/injection, schedule: Q01DX005 (ip), vehicle: water); 108 % of control and 105 % of control (dose: 12.0 mg/kg/injection, schedule: Q01DX005 (iv), vehicle: water); 116 % of control (dose: 12.06 mg/kg/injection, schedule: Q01DX001 (iv), vehicle: water); 110 % of control (dose: 12.1 mg/kg/injection, schedule: Q01DX005 (iv), vehicle: water). Besides, the T/C (dose: 13.0 mg/kg/injection, schedule: Q01DX005 (ip), vehicle: water) was 162 % of control; the T/C (dose: 13.0 mg/kg/injection, schedule: Q01DX009 (sc), vehicle: water) is 101 % of control; the T/C (dose: 13.5 mg/kg/injection, schedule: Q04DX003 (ip), vehicle: water) was 165 % of control; the T/C (dose: 15.0 mg/kg/injection, schedule: Q01DX005 (iv), vehicle: water) is 110 % of control; the T/C (dose: 15.0 mg/kg/injection, schedule: Q01DX009 (ip), vehicle: water) is 180 % of control; the T/C (dose: 15.0 mg/kg/injection, schedule: Q01DX009 (oral), vehicle: water) was 103 % of control. The T/C is 191 % of control (dose: 18.0 mg/kg/injection, schedule: Q01DX001 (ip), vehicle: water); 112 % of control (dose: 18.0 mg/kg/injection, schedule: Q01DX005 (ip), vehicle: water); 110 % of control and 97 % of control and 104 % of control (dose: 18.0 mg/kg/injection, schedule: Q01DX005 (iv), vehicle: water); 159 % of control (dose: 18.1 mg/kg/injection, schedule: Q01DX005 (ip), vehicle: water); 121 % of control (dose: 20.0 mg/kg/injection, schedule: Q01DX005 (ip), vehicle: water); 95 % of control and 103 % of control (dose: 20.0 mg/kg/injection, schedule: Q01DX009 (sc), vehicle: water). Moreover, the T/C reads like this: (dose: 20.2 mg/kg/injection, schedule: Q04DX003 (ip), vehicle: water) 178 % of control; (dose: 22.39 mg/kg/injection, schedule: Q01DX009 (oral), vehicle: water) 96 % of control; (dose: 27.0 mg/kg/injection, schedule: Q01DX001 (ip), vehicle: water) 203 % of control; (dose: 27.0 mg/kg/injection, schedule: Q01DX001 (iv), vehicle: water) 108 % of control; (dose: 27.0 mg/kg/injection, schedule: Q01DX005 (iv), vehicle: water) 112 % of control and 106 % of control; (dose: 30.0 mg/kg/injection, schedule: Q01DX009 (sc), vehicle: water) 97 % of control. Further, the T/C reads like this: (dose: 33.41 mg/kg/injection, schedule: Q01DX009 (oral), vehicle: water) 101 % of control; (dose: 40.5 mg/kg/injection, schedule: Q01DX001 (ip), vehicle: water) 226 % of control; (dose: 40.5 mg/kg/injection, schedule: Q01DX001 (iv), vehicle: water) 121 % of control; (dose: 49.87 mg/kg/injection, schedule: Q01DX009 (oral), vehicle: water) 100 % of control.
For `Oc1ccc2ccccc2c1N=Nc1ccc(F)cc1`, the T/C (dose: 50.0 mg/kg/injection, schedule: Q01DX009 (ip), vehicle: saline with Tween-80) was 111 % of control and 113 % of control; the T/C (dose: 100.0 mg/kg/injection, schedule: Q01DX009 (ip), vehicle: saline with Tween-80) is 120 % of control; the T/C (dose: 200.0 mg/kg/injection, schedule: Q01DX009 (ip), vehicle: saline with Tween-80) was 109 % of control and 123 % of control; the T/C (dose: 400.0 mg/kg/injection, schedule: Q01DX009 (ip), vehicle: saline with Tween-80) was 113 % of control and 106 % of control.
Consider `COc1ccc(N=C(C)C2C(=O)c3ccccc3C2=O)cc1`, for which the T/C is 103 % of control (dose: 50.0 mg/kg/injection, schedule: Q01DX009 (ip), vehicle: DMSO); 103 % of control (dose: 100.0 mg/kg/injection, schedule: Q01DX009 (ip), vehicle: DMSO); 105 % of control (dose: 200.0 mg/kg/injection, schedule: Q01DX009 (ip), vehicle: DMSO); 116 % of control (dose: 400.0 mg/kg/injection, schedule: Q01DX009 (ip), vehicle: DMSO); 97 % of control (dose: 800.0 mg/kg/injection, schedule: Q01DX009 (ip), vehicle: DMSO).
On to `OCC1OC(n2cnc3c(NO)ncnc32)C(O)C1O` (stereo not drawn), for which the T/C reads like this: (dose: 12.5 mg/kg/injection, schedule: Q01DX009 (ip), vehicle: Klucel (hydroxypropylcellulose) (HPC)) 101 % of control and 105 % of control; (dose: 25.0 mg/kg/injection, schedule: Q01DX009 (ip), vehicle: Klucel (hydroxypropylcellulose) (HPC)) 93 % of control and 100 % of control; (dose: 50.0 mg/kg/injection, schedule: Q01DX009 (ip), vehicle: Klucel (hydroxypropylcellulose) (HPC)) 96 % of control and 98 % of control; (dose: 100.0 mg/kg/injection, schedule: Q01DX009 (ip), vehicle: Klucel (hydroxypropylcellulose) (HPC)) 97 % of control and 101 % of control; (dose: 200.0 mg/kg/injection, schedule: Q01DX009 (ip), vehicle: Klucel (hydroxypropylcellulose) (HPC)) 91 % of control and 95 % of control; (dose: 400.0 mg/kg/injection, schedule: Q01DX009 (ip), vehicle: Klucel (hydroxypropylcellulose) (HPC)) 86 % of control and 87 % of control.
